Source: the CheMixHub viscosity set

Test: xn = mol fraction of the nth substance listed
Settings: 101 kPa

CC(O)CCO (stereo not given) + NCCN
viscosity [mPa·s]
Settings	298.15 K	303.15 K	308.15 K	313.15 K	318.15 K
x1 = 0.0339	1.64	1.4	1.3	1.21	1.04
x1 = 0.069	1.98	1.66	1.56	1.42	1.23
x1 = 0.1053	2.43	2.01	1.82	1.7	1.42
x1 = 0.1429	3.03	2.47	2.24	2.05	1.71
x1 = 0.1819	3.82	3.07	2.73	2.54	2.05
x1 = 0.2223	4.9	3.88	3.4	3.08	2.49
x1 = 0.2642	6.37	4.97	4.3	3.85	3.09
x1 = 0.3078	8.35	6.46	5.45	4.85	3.81
x1 = 0.353	11.2	8.5	7.1	6.21	4.83
x1 = 0.4001	15.1	11.2	9.15	7.91	6.04
x1 = 0.4491	20.4	14.9	12	10.2	7.56
x1 = 0.5001	27.3	19.6	15.4	13.1	9.61
x1 = 0.5533	36	25.4	19.7	16.4	12
x1 = 0.6088	46.1	32.1	24.8	20.4	14.8
x1 = 0.6667	56.3	39.4	29.9	24.5	18.2
x1 = 0.7273	66.7	47.4	35.9	28.7	21.5
x1 = 0.7908	77.5	56	41.7	32.4	24.4
x1 = 0.8572	85.7	62	46.2	35.8	26.9
x1 = 0.9269	91.6	66.1	49.3	38.2	28.6

c1ccncc1 + O
viscosity [mPa·s]
Settings	298.15 K	303.15 K	308.15 K	313.15 K	318.15 K
x1 = 0.0201	1.122	0.9952	0.8906	0.8042	0.7251
x1 = 0.0503	1.379	1.214	1.078	0.9651	0.8727
x1 = 0.0701	1.532	1.342	1.187	1.058	0.9504
x1 = 0.0999	1.725	1.505	1.325	1.175	1.05
x1 = 0.1203	1.837	1.6	1.405	1.244	1.11
x1 = 0.1499	1.972	1.713	1.501	1.326	1.18
x1 = 0.1701	2.05	1.778	1.556	1.373	1.22
x1 = 0.1999	2.139	1.853	1.619	1.426	1.266
x1 = 0.2201	2.189	1.897	1.657	1.467	1.302
x1 = 0.2502	2.235	1.934	1.688	1.485	1.316
x1 = 0.2701	2.253	1.949	1.701	1.496	1.326
x1 = 0.2999	2.265	1.96	1.711	1.505	1.334
x1 = 0.3198	2.26	1.957	1.709	1.504	1.333
x1 = 0.35	2.235	1.937	1.694	1.492	1.324
x1 = 0.4002	2.15	1.87	1.64	1.45	1.289
x1 = 0.4499	2.023	1.77	1.56	1.384	1.236
x1 = 0.5002	1.871	1.648	1.461	1.304	–
x1 = 0.5998	1.559	1.395	1.255	1.134	–
x1 = 0.7002	1.297	1.177	1.073	0.9812	–
x1 = 0.8004	1.109	1.018	0.9375	0.8659	–
x1 = 0.8999	0.983	0.9101	0.8448	0.7862	–
